Measured values taken from PubChem BioAssay AID1996.
Converted amounts (≈) assume the structure as drawn.

Conditions: buffer; pH 7.4; 200.0 µM

Structure (SMILES)	solubility kinetic [µg/mL]
COC(=O)c1ccc(Nc2cc(C)nc3ccc(C)cc23)cc1.Cl	8
O=C(c1ccco1)N1CCC(N2CCN(c3ccccc3)CC2)CC1	43.8 (≈ 129 µM)
CC1CN(C(=O)/C=C/c2ccc(SC(F)F)cc2)CC(C)O1 (stereo not drawn)	36.3 (≈ 111 µM)
O=C(COC(=O)c1ccc2c(c1)OCO2)NC1CCCCC1	18.4 (≈ 60.3 µM)
CN1CC(=O)N(CC(=O)Nc2cccc3ccccc23)C1=O	> 44.6
CCOC(=O)C1CCN(C(=O)COC(=O)CSc2ccccc2C)CC1	> 56.9
Cc1cc(Cl)nc(Cl)c1C(=O)NCc1ccc(Cl)cc1	6.8 (≈ 20.6 µM)
CS(=O)(=O)N1CCC(C(=O)NCc2ccccc2)CC1	> 44.5
O=[N+]([O-])c1cccnc1Oc1ccc(C2SCCS2)cc1	< 0.3
O=C(NC(=S)NC1CCS(=O)(=O)C1)c1ccccc1F (stereo not drawn)	44.9 (≈ 142 µM)
COc1cc(C=NNC(=O)c2ccccc2-n2cccc2)ccc1O	> 50.3
CCOC(=O)C(NC(C)=O)(NC(C)C)C(F)(F)F (stereo not drawn)	2.2 (≈ 8.14 µM)
CCN1CCN(CC(=O)Nc2cc(S(=O)(=O)N(CC)c3ccccc3)ccc2Cl)CC1.Cl	> 75.2
CCOC(=O)c1c(C)[nH]c(C(=O)COC(=O)c2ccco2)c1C	3.1 (≈ 9.71 µM)
CCOC(=O)C1=C(C)N(C)C(=S)N(C)C1c1ccc(OC)cc1 (stereo not drawn)	19.8 (≈ 59.2 µM)
O=C(Cc1ccccc1)Nc1ccc(NC(=O)c2cccnc2)cc1	3.2 (≈ 9.66 µM)
Cc1ccccc1OCCCN1CCOCC1	31.3 (≈ 133 µM)
CC(C)(C)OC(=O)N1CCCN(C(=O)Nc2cccc(Cl)c2)CC1	51.4 (≈ 145 µM)
COc1cc(CNC(C)C23CC4CC(CC(C4)C2)C3)cc(OC)c1OC.Cl (stereo not drawn)	> 59.4
COc1ccccc1NC(=O)COC(=O)C12CC3CC(CC(Br)(C3)C1)C2	5.5 (≈ 13 µM)
Cc1ccc2c(c1)N(CC(=O)N1CCOCC1)C(=O)CO2	> 43.5
CC(=O)Nc1nc(-c2ccccc2)cc(-c2ccco2)c1C#N	2 (≈ 6.59 µM)
Cc1ccc(NC(=O)CN(C)C(=O)Cc2ccccc2F)cc1	> 47.2
COc1cccc(C(=O)N(C)Cc2c(C)nn(C3CCS(=O)(=O)C3)c2C)c1 (stereo not drawn)	> 58.7

Structure (SMILES)	solubility kinetic [µg/mL]
CCN1CCN(S(=O)(=O)c2ccc(C(C)(C)C)cc2)CC1	45.6 (≈ 147 µM)
Cc1ccc(OCC(=O)NC2CC(C)(C)NC(C)(C)C2)c(C)c1	> 47.8
O=C(NCc1ccc2c(c1)OCO2)c1c(Cl)cccc1Cl	15 (≈ 46.3 µM)
Cc1ccc(N2CC(C(=O)NCCN3CCOCC3)CC2=O)cc1 (stereo not drawn)	> 49.7
CC(C)C(OC(=O)c1ccc(Cl)nc1)C(=O)NC1CCCCC1 (stereo not drawn)	29.7 (≈ 87.7 µM)
Cc1nccn1Cc1ccc(Cl)nc1	> 31.1
Fc1ccc(CN2CCC(Cc3ccccc3)CC2)cc1F	8 (≈ 26.5 µM)
COC(=O)c1cn(CC(=O)Nc2ccccc2C)c2ccccc12	0.4 (≈ 1.24 µM)
Cc1onc(-c2ccccc2)c1C(=O)NCc1ccc(F)cc1	7 (≈ 22.6 µM)
Cl.N=c1n(CCO)c2ccccc2n1CCN1CCCCC1	> 48.7
O=C(Nc1nc(-c2ccccc2)ns1)c1ccncc1	2.4 (≈ 8.5 µM)
COc1cccc(C2N(c3ccccc3)CCN2c2ccccc2)c1OC	1 (≈ 2.77 µM)
O=C(O)/C=C/C(=O)NC1CCCCCCCCCCC1	> 42.2
CCN(CC)CCOC(=O)C(O)(c1ccccc1)c1ccccc1.Cl	> 54.6
O=C(Nc1ccc2ccccc2c1)c1cccc(F)c1	1.3 (≈ 4.9 µM)
O=[N+]([O-])c1ccc(-c2cnc[nH]2)cc1	> 28.4
COc1cc(OC)c(OC)cc1CNCCNC(=O)c1ccco1	44.5 (≈ 133 µM)
COc1cccc(CSc2nc(N)cc(N)n2)c1	28.6 (≈ 109 µM)
CCN(Cc1ccccc1)C(=O)COC(=O)c1cnc(C)cn1	38 (≈ 121 µM)
COc1ccc(-n2ccnc2)cc1	> 26.1
CCCCNC(=O)COC(=O)c1ccc(C)c(NC(=O)c2ccco2)c1	17.8 (≈ 49.7 µM)
O=C(COC(=O)c1cccnc1Cl)NCC1CCCO1 (stereo not drawn)	> 44.8
COc1cc2c(C(=O)NCCN(C)C)cn(CC(C)C)c(=O)c2cc1OC	> 56.3
Cc1nc(NC(=O)c2cc3ccccc3o2)sc1C	3.1 (≈ 11.4 µM)

Structure (SMILES)	solubility kinetic [µg/mL]
COCCn1c(N)c(Sc2ccc(Cl)cc2)c(=O)[nH]c1=O	47.4 (≈ 145 µM)
Cc1cc(NC(=O)Nc2c[nH]c(=O)[nH]c2=O)ccc1Br	1.8 (≈ 5.31 µM)
CCCCC/C(=N/O)c1c(C)[nH]c2ccccc12	29.8 (≈ 122 µM)
CC(=O)Nc1ccc(NC(=O)c2cc(-n3cnnc3)ccc2Cl)cc1	> 53.4
CCC(=O)Nc1cc(C(F)(F)F)ccc1N1CCCC1	34 (≈ 119 µM)
O=C(O)CN1C(=O)/C(=C/c2ccc(SCc3ccccc3)o2)SC1=S	21.2 (≈ 54.2 µM)
CC(C)(C)c1ccc(OC(=O)N2CCOCC2)cc1	31.9 (≈ 121 µM)
CCCS(=O)(=O)Nc1c(C(=O)O)[nH]c2ccc(OC)cc12	46.3 (≈ 148 µM)
COc1ccc(-c2cc3nc4n(c(=O)c3s2)CCCCC4)cc1	< 0.3
NC(=O)c1cc(-c2ccccc2)nc2ccc(Br)cc12	1.8 (≈ 5.5 µM)
Cc1ccc2nc(-c3ccsc3)c(NC3CCCC3)n2c1	1.6 (≈ 5.38 µM)
S=c1[nH]cc(-c2ccccc2)[nH]1	> 26.4
CC(C)c1ccc2nc(N)sc2c1	28.3 (≈ 147 µM)
O=C(Nc1cccc(C(=O)Nc2ccc(F)cc2F)c1)c1ccccc1	0.4 (≈ 1.14 µM)
CC(C)CC(=O)N1CCN(Cc2ccccc2Br)CC1	42 (≈ 124 µM)
COc1ccc(C(=O)NCCc2c[nH]c3ccccc23)cc1[N+](=O)[O-]	10.8 (≈ 31.8 µM)
O=[N+]([O-])c1ccc(Oc2ncccn2)cc1	28.4 (≈ 131 µM)
S=C(NCC1CCCO1)Nc1cccc(Cl)c1 (stereo not drawn)	> 40.6
COc1ccc(OCCC(=O)OCC(=O)NCc2ccc(F)cc2)cc1	33.5 (≈ 92.7 µM)
O=C(NCCN1CCN(c2ccccc2)CC1)Nc1ccc(Cl)cc1	3.7 (≈ 10.3 µM)
COc1ccc(-c2noc(CCC(=O)NCc3ccco3)n2)cc1	39.7 (≈ 121 µM)
O=C(OCc1nc2ccsc2c(=O)[nH]1)c1ccco1	> 41.4
O=C(c1cc2ccccc2oc1=O)N1CCOCC1	> 38.9
CCOc1nc(NCCO)nc(Nc2ccccc2F)n1	> 44

Structure (SMILES)	solubility kinetic [µg/mL]
COc1ccccc1CCC(=O)OCC(=O)NC1CCCCC1	43.7 (≈ 137 µM)
Cc1ccc(NC(=O)CNC(=O)c2ccco2)cc1	> 38.7
C/C(=N/NC(=O)c1ccncc1)c1ccc2c(c1)OCO2	> 42.5
CCS(=O)(=O)c1ncc(Cl)c(C(=O)Nc2ccccc2OC)n1	0.3 (≈ 0.843 µM)
O=C(O)c1ncc(Cl)c(Cl)c1Cl	33.1 (≈ 146 µM)
Cn1c(O)c(C=NCCCCCCCCCCC(=O)O)c(=O)n(C)c1=O	> 55.1
O=C(CCc1ccccc1)NCCc1ccc(F)cc1	37.4 (≈ 138 µM)
O=C(C1CC(=O)N(c2ccccc2)C1)N1CCCCCC1 (stereo not drawn)	> 43
Cc1c(NC(=O)COC(=O)C2=COCCO2)cccc1[N+](=O)[O-]	> 48.3
Cc1ccc(N(Cc2ccccc2)C(=O)c2ccc(F)cc2)cc1	9.1 (≈ 28.5 µM)
OC(CNC1Cc2ccccc2C1)c1ccccc1 (stereo not drawn)	> 38
CC(C)C1Nc2ccc(C(=O)NC3CCCCC3)cc2NC1=O (stereo not drawn)	> 47.3
Cc1ccsc1/C=N/NC(=O)CNC(=O)c1ccco1	> 43.7
CN(c1ccc(C(=O)Nc2cccnc2)cc1)S(=O)(=O)c1ccccc1	> 55.1
COc1ccc(OC)c(NC(=O)CCCc2ccccc2)c1	24.5 (≈ 81.8 µM)
COc1ccc(C(=O)OCC(=O)c2ccc3c(c2)NC(=O)CO3)cc1S(=O)(=O)N1CCOCC1	11.3 (≈ 23 µM)
CC1(C)S[C@@H]2[C@H](NC(=O)C(C(=O)[O-])c3ccccc3)C(=O)N2[C@H]1C(=O)[O-].[Na+] (stereo partly drawn)	> 63.4
Cn1c(C(=O)N[C@@H](C(=O)O)c2ccccc2)cc2cc(Cl)ccc21	> 51.4
O=[N+]([O-])c1ccc(NCc2ccncc2)cc1	> 34.4
Cc1cnc(NC(=O)c2ccc(-c3ccc([N+](=O)[O-])cc3)o2)s1	1.9 (≈ 5.77 µM)
CCc1ccc(S(=O)(=O)Nc2ccc(Br)cn2)cc1	18.1 (≈ 53 µM)
O=C(/C=C/c1cccc([N+](=O)[O-])c1)c1ccco1	1.7 (≈ 6.99 µM)
Cc1cc(Br)ccc1NC(=O)c1ccco1	> 42
Cn1nc(C(F)(F)F)c(-c2ccccc2)c1NC(=O)CCC(=O)O	> 51.2

Structure (SMILES)	solubility kinetic [µg/mL]
O=C(NCc1ccc(Cl)cc1)c1ccc(N2CCCC2=O)cc1	5.3 (≈ 16.1 µM)
CCN(C(=O)COC(=O)/C=C/c1ccc(F)cc1)C1CCCCC1	42.8 (≈ 128 µM)
Cl.O=C(Nc1ncc([N+](=O)[O-])s1)c1cccs1	> 43.8
COc1ccc(-n2nc(C)cc2Nc2ccccc2C(=O)O)cc1	> 48.5
COc1cccc(NC(=O)CN2C(=O)C(=O)N(C3CCCC3)C2=O)c1	> 51.8
Cc1ccc(C2(CCNCc3ccco3)CCOC(C(C)C)C2)cc1 (stereo not drawn)	> 51.2
Fc1ccc(-n2c(-c3ccco3)n[nH]c2=S)cc1	> 39.2
COc1ccc(N2CCN(C(=O)CCc3ccccc3)CC2)cc1	> 48.7
Cc1cnc(=O)[nH]c1SCc1cccc(C(F)(F)F)c1	8.3 (≈ 27.6 µM)
CN(C)c1ccc(/C=C(/NC(=O)c2ccccc2)C(=O)N2CCCC2)cc1	47.7 (≈ 131 µM)
CCCOC(=O)CC1C(=O)NCCN1C(=O)OC(C)(C)C (stereo not drawn)	> 45.1
O=C(Nc1ccc2oc(-c3ccncc3)nc2c1)c1ccc(F)cc1	0.9 (≈ 2.7 µM)
O=C(NC(=S)Nc1ccc(F)cc1)C1CCCCC1	1.3 (≈ 4.64 µM)
Cc1ccccc1N1CCN(Cc2cc3c(cc2[N+](=O)[O-])OCO3)CC1	3.5 (≈ 9.85 µM)
CCOC(=O)c1sc(=S)n(-c2ccccc2)c1C	3.4 (≈ 12.2 µM)
CC1CCN(C(=S)NC(=O)c2ccco2)CC1	> 37.8
C#CCn1c(=O)cc(C)c2ccccc21	> 29.6
Cc1ccc(C(=O)N/C(=C/c2ccco2)C(=O)N2CCC(C)CC2)cc1	> 52.9
N#Cc1ccc(C(=O)Nc2cc(S(=O)(=O)N3CCOCC3)ccc2N2CCCC2)cc1	> 66.1
Cc1ccc(C(=O)O)cc1N=Nc1c(O)[nH]c(=O)[nH]c1=O	> 43.5
Cc1cccc(C(=O)NCC(=O)OCC(=O)c2ccc(Cl)s2)c1	> 52.8
Cc1cc(C)c(S(=O)(=O)Nc2cc(C)on2)c(C)c1	37.2 (≈ 133 µM)
